From patent US5869023A, “Composition for MRI comprising both a positive and a negative contrast agent” (Nycomed Imaging AS, priority 1993, dated 1999)
“Also recorded” adds a separate entry of the source.

What was measured:
[1] = in vivo; cited from earlier work
Human blood samples = assay: In vitro MR imaging of contrast agent doped human blood samples, viable vs freeze-injured cells (Example 2); assay type: cell-based
Description: Human blood samples with different hematocrit readings (Ht) of 27%, 45% and 69% were prepared to provide sample models for different levels of compartmentalization between intracellular and extracellular fluids. To initiate cellular level injury, samples with these Ht readings were frozen to effect cell membrane destruction. Finally a control sample of cell free plasma was also used.
To the test samples were added (a) a positive ECF contrast agent (GdDTPA-BMA at a dosage corresponding to 0.2 mmol Gd/kg); (b) a negative ECF contrast agent (DyDTPA-BMA at a dosage corresponding to 0.6 mmol Dy/kg); and (c) a positive ECF contrast agent and a negative ECF contrast agent (GdDTPA-BMA and DyDTPA-BMA at dosages corresponding to 0.2 mmol Gd/kg and 0.6 mmol Dy/kg).
These doped samples, and controls to which no contrast agent was added, were imaged together at ambient temperature in the head coil of a Siemens Magnetom operating at 0.5 T using T1 -weighted (TR/TE 500/30 ms), T2 -weighted (TR/TE 1500/90 ms) and proton density-weighted (TR/TE 1500/30 ms) echo sequences. The signal intensity for each contrast agent doped sample was normalized to the corresponding undoped sample and the results are set forth as ratios in FIGS. 1 to 3 hereto, squares, circles and diamonds representing the ratios for T1 -weighted, PD-weighted and T2 -weighted sequences respectively.

[2] = test system: infarcted and nonischemic myocardium; assay: Ex vivo MR imaging of pig hearts, myocardial infarction model (Example 4); assay type: in vivo; settings: Dy DTPA-BMA 1.0 mmol/kg plus Gd DTPA-BMA 0.3 mmol/kg
Description: A control group received no contrast agent.
(§1) Following sacrifice, the hearts were extirpated and rinsed in isotonic saline to remove remaining blood. The hearts were examined ex vivo at ambient temperature in the MR equipment and then cut into thin transverse slices and soaked for about 20 minutes in a 1% aqueous solution of triphenyltetrazolium chloride (TTC) at 37° C. The slices were then visually inspected for unstained areas corresponding to infarction.
MR examination was performed in a superconductive whole body equipment (Siemens Magnetom) operating at 0.5 T. The hearts were investigated with saggital and transverse multi-slice spin-echo images with TR/TE of 500/30 (two excitations), 1500/30,70 and 1500/30,120 (single excitations) using a saddle-shaped coil with a diameter of 13 cm. The following parameters were used: Slice thickness 7 mm. Interslice gap 20%. Acquisition matrix 256×256 giving a resolution of 0.7×0.7 mm.
In the transverse images regions of interest (ROI's) were placed in infarcted and nonischemic myocardium, in a corn oil phantom and in front of the heart (noise). The mean signal intensity (SI) was measured in each ROI.
In addition, the SD was measured in the noise. […]

[3] = test system: infarcted and non-ischemic myocardium; assay: MR imaging of excised pig hearts, double contrast (Example 5); assay type: in vivo
Description: The total occlusion time was thus 6 hours.
as §1, with “into approximately 8 mm thick” for “into thin”, “for 10-20” for “for about 20”, “C. TTC stains non-ischemic myocardium brick red.” for “C.”, “were inspected” for “were then”, “visually” for “visually inspected”, “areas of” for “areas corresponding to”
MR images were obtained in an identical manner to that described in Example 4.
In the transverse images, three ROI's were placed in infarcted myocardium. Four ROI's were placed in non-ischemic myocardium, two in the anterior wall and two in the posterior wall of the left ventricle. The mean signal intensity (S) was measured in each ROI. One ROI was placed anterior to the heart in an area free from visible artefacts, in order to measure the standard deviation (SD) of the background signal. These measurements were used to calculate the contrast (C) and contrast-to-noise (C/N) ratios between infarcted (inf) and non-ischemic (nonisch) myocardium using the formulae defined in Example 4.
In each heart, non-ischemic myocardium and infarction were represented by a mean value from measurements in two slices.

[4] = test system: normal and reperfused infarcted myocardium; assay: MR imaging and T2/T2* relaxation of rat hearts after single agents, protocol 2 (Example 6); assay type: in vivo, Sprague Dawley rats; settings: for T2, infarct / T2, normal myocardium: four-echo T2-weighted, TR=4000 ms; for GRE signal intensity, infarct / GRE signal intensity, normal myocardium: gradient recalled echo images, Dy 1.0 mmol/kg n=11 or Gd 0.2 mmol/kg n=7; for T2*, infarct / T2*, normal myocardium: gradient-recalled images, TE=10, 15, 20 and 30 ms; for SE T1 signal intensity, infarct / SE T1 signal intensity, normal myocardium: spin echo T1 weighted, TR/TE=300/20 ms; for SE T2 signal intensity, infarct / SE T2 signal intensity, normal myocardium: spin echo T2 weighted, TR/TE=4000/80 ms
Description: Images were acquired at room temprature using a GE CSI 2.0 T system. Each heart was positioned with its long axis parallel to the main magnetic field such that axial images would present short axis views of the heart. All images were obtained using a slice thickness of 2 mm, FOV of 30 mm, and a raw data matrix of 128×256 interpolated to 256×256 during reconstruction. TR/TE settings used for spin echo images are indicated below. Gradient echo images were obtained using a TR of 600 ms, with the radio frequency pulse power set very low such that no signal saturation was evident following multiple pulses and images would contain no T1 weighting.
Group 3 (n=11) received 1.0 mmol/kg DyDTPA-BMA, group 4 (n=7) received 0.2 mmol/kg of GdDTPA-BMA and group 5 (n=7) received no contrast agents. The imaging protocol for each heart consisted of spin echo T1-weighted (TR/TE=300/20 ms, NEX=4) and T2-weighted (TR/TE=4000/80 ms; NEX=2), a set of four-echo T2-weighted images (TR=4000 ms, TE=20, 40, 60 and 80 ms, NEX=2) for estimation of regional T2 values, and a set of gradient-recalled images (TE=10, 15, 20 and 30 ms, NEX=4) for estimation of region T2* values. TTC staining of the heart was performed to verify the presence of infarction.
Signal intensities were measured from ROIs selected over infarcted and uninfarcted myocardium. The same ROIs were applied to all images obained from each heart.
A series of gradient recalled and spin echo MR images were obtained to resolve the effects of GdDTPA-BMA on T2-weighted images and DyDTPA-BMA on T1-weighted images and also to more thoroughly characterize the differences in contrast media-induced T2 and T2* enhancement between infarcted and normal myocardium. Table III summarises the observed alterations in regional signal intensity and relaxation rates following administration of either GdDTPA-BMA or DyDTPA-BMA.

[5] = test system: infarcted and non-ischemic myocardium; settings: pig, in vivo; for time of early peak in dialysate: iv
Description: (§2) Myocardial infarction was induced in 5 anaesthetized pigs of either sex (weight 25-30 kg) by ligating a diagonal branch of the left anterior descending artery (LAD), at thoracotomy. Microdialysate probes were inserted in ischemic and non-ischemic myocardium. The pigs were sacrificed 2 hours after administration of contrast media. 4 hour post occlusion Gd-DTPA-BMA (0.3 mmol/kg) and Dy-DTPA-BMA (1.0 mmol/kg) were simultaneously administered in vivo with an injection time of one minute. The total occlusion time was thus 6 hours.
(§3) The microdialysate was collected every 10 minutes and measured for gadolinium and dysprosium using inductively coupled plasma atomic emission spectrometry (ICP-AES). The microdialysis equipment consisted of a CMA®/20 microdialysis probe with a 10 mm flexible membrane and a diameter of 0.5 mm (CMA AB, Stockholm, Sweden). […] The probe was perfused with a Krebs-Ringer phosphate buffer (pH 7.4) at a speed of 2 μl/min and a dead space, in the system, of 10 μl. […] One probe was inserted into the central part of the ischemic area and another probe was placed in non-ischemic myocardium in the lateral wall using the Seldinger technique to minimize mechanical injury to myocardium and probe membrane. A CMA® microdialysis pump (CMA 100) was used with two syringes to perfuse the probes.
(§4) In addition, gadolinium and dysprosium were determined in dialysates from five pigs by ICP-AES. Twenty μl portions were sampled in plastic tubes and kept frozen until analysis. The samples were diluted to 5.02 ml with ultra-pure water. To enhance the sensitivity of measurements, an ultrasonic nebulizer was used instead of the pneumatic one. The limit of detection for the method is about 2 μg/l for both gadolinium and dysprosium in the measuring solution. This means that about 3 μmol/l can be detected in the dialysates.

[6] = test system: normal and infarcted myocardium; settings: rat, in vivo; for concentration ratio, reperfused infarcted vs normal myocardium: 15 min
Description: Thirty seven Sprague Dawley rats (200-400 gm) were anaesthetized by an intraperitoneal injection of sodium pentobarbital (50 mg/kg body weight). After tracheostomy, animals were ventilated using a small animal respirator. The heart was exposed following a left thoracotomy through the 4th intercostal space and a surgical suture was used to ligate the anterior branch of the left coronary artery near its origin beneath the left atrial appendage using a snare ligature. The presence of occlusion was visually confirmed by noting the development of myocardial cyanosis. After 1 hour occlusion, reperfusion was initiated by loosening the snare ligature. A catheter was placed into a femoral vein to inject contrast media. All animals which received contrast agent were administered doses at 45 minutes of reflow. After 1 hour reperfusion, each heart was excised and rinsed in 0.9% saline, patted dry with gauze, and a cotton swab was inserted into the left ventricular cavity to expand the chamber. Each heart was wrapped in clear plastic wrap to minimise dehydration during imaging.
To group 1 rats (n=9) were administered 0.2 mmol/kg of GdDTPA-BMA immediately followed by 1.0 mmol/kg of DyDTPA-BMA. Group 2 (n=7) received no contrast agents. Two spin-echo images were obtained from the midventricle of each heart, a T1-weighted image with TR/TE=300/20 and NEX=4, and T2-weighted image with TR/TE=3000/60 and NEX=2. After imaging, each heart was sliced at the midventricular level and soaked in a 2% solution of TTC at 37° C. for 15 minutes to define myocardial infarction.
Samples of normal and infarcted myocardium were retained for analysis of Gd and Dy content by means of ICP-MS.

[7] = test system: infarcted and nonischemic myocardium; settings: cited from earlier work; for distribution / enhancement in 6-hour-old myocardial infarction: porcine model
myocardial infarction = settings: first positive, second negative agent, sequential; cited from earlier work
[8] = test system: infarcted and non-ischemic myocardium; assay: Microdialysis kinetics of Gd and Dy in extracellular space of pig myocardium (Example 5); settings: for concentration course in dialysate / duration of plateau in dialysate: infarcted myocardium; for concentration in dialysate after early peak: non-ischemic myocardium
Description: as §2, §3, §4

[9] = test system: infarcted and non-ischemic myocardium; settings: pig, in vivo
Description: as §2
The total amount of gadolinium and dysprosium in samples of infarcted and non-ischemic myocardium was quantified by ICP-AES.
Paired t-tests (two-tailed) were used to compare the gadolinium and dysprosium content, respectively, in infarcted and non-ischemic myocardium within the group. […] In addition, the extracellular concentrations of gadolinium and dysprosium were further compared with the content of gadolinium and dysprosium in tissue samples.

| Compound | differential enhancement of reperfused infarction, T1-weighted ([4]; T1-weighted images) | delineation of infarcted region, T2-weighted ([4]; T2-weighted images) | signal intensity of infarcted region, T2-weighted ([4]; T2-weighted images) | signal intensity of normal region, T2-weighted ([4]; T2-weighted images) | T2, infarct [4] | T2, normal myocardium [4] | GRE signal intensity, infarct [4] | GRE signal intensity, normal myocardium [4] | T2*, infarct [4] | T2*, normal myocardium [4] | SE T1 signal intensity, infarct [4] | SE T1 signal intensity, normal myocardium [4] | SE T2 signal intensity, infarct [4] | SE T2 signal intensity, normal myocardium [4] | time to plateau concentration in dialysate [5] | time of early peak in dialysate [5] | metal content in infarcted region vs normal myocardium [6] | concentration ratio, reperfused infarcted vs normal myocardium [6] | distribution in infarcted heart (myocardial infarction) | concentration course in dialysate [8] | also measured |
| --- | --- | --- | --- | --- | --- | --- | --- | --- | --- | --- | --- | --- | --- | --- | --- | --- | --- | --- | --- | --- | --- |
| CNC[C@H](O)[C@@H](O)[C@H](O)[C@H](O)CO.CNC[C@H](O)[C@@H](O)[C@H](O)[C@H](O)CO.O=C([O-])CN(CCN(CC(=O)[O-])CC(=O)O)CCN(CC(=O)[O-])CC(=O)O.[Gd+3] [Gd DTPA-dimeglumine] |  |  |  |  |  |  |  |  |  |  |  |  |  |  |  |  |  |  |  |  | distribution after intravenous administration [1]: rapidly distributes throughout the extracellular fluid (ECF) |
| CNC(=O)CN(CCN(CCN(CC(=O)[O-])CC(=O)NC)CC(=O)[O-])CC(=O)[O-].[Dy+3] [DyDTPA-BMA] | significant differential enhancement | delineated by both agents | much less reduction in signal of the infarcted region | great suppression of normal myocardium signal | 35.8 ± 1.0 ms | 25.9 ± 0.6 ms | 191 ± 34 | 105 ± 18 | 17.7 ± 1.2 ms | 9.4 ± 0.5 ms | 141 ± 14 | 88 ± 7 | 42 ± 4 | 12 ± 1 | 20 to 30 min | ≤ 10 min | greater amount of dysprosium in the infarcted zone | approximately 2.5 fold | allowed essentially only to distribute to the normal tissue resulting in the generation of enhanced contrast between normal and infarcted tissue | increased gradually | signal intensity, "viable" sample (Human blood samples; all sequences, most markedly T2-weighted): signal intensity fell with increasing Ht reading; signal intensity, "non-viable" samples (Human blood samples; frozen samples, all sequences): no effect; effect of negative agent on T1 enhancing effect of positive agent in infarcted area [2]: does not cancel the T1 enhancing effect of the positive agent in the infarcted area; counteraction of Gd-DTPA-BMA induced signal enhancement by Dy-DTPA-BMA ([3]; all investigated sequences, infarcted tissue): not significantly counteracted; also recorded: did not counteract the Gd-DTPA-BMA induced enhancement of the infarcted tissue; susceptibility induced (Dy induced) signal intensity reduction in infarctions ([3]; infarctions): lack of detectable susceptibility induced (i.e. Dy induced) signal intensity reduction effects in the infarctions; contrast between infarcted and normal region vs both agents ([4]; T2-weighted images): greater contrast between the two regions than was noted when both agents were administered; infarct detection / conspicuity ([7]; T1- and T2-weighted sequences): improves the infarct detection due to susceptibility-induced loss of signal intensity in nonischemic myocardium; signal effect of accumulation in infarcted myocardium ([7]; infarcted myocardium): does not seem to result in signal loss but maintains a persistent intensity relative to the depleted signal in normal myocardium; duration of plateau in dialysate [8]: 60 min; concentration in dialysate after early peak [8]: diminished with time |
| O=C([O-])CN(CCN(CC(=O)[O-])CC(=O)O)CCN(CC(=O)[O-])CC(=O)O.[Gd+3] [Gd-DTPA, reference compound] |  |  |  |  |  |  |  |  |  |  |  |  |  |  |  |  |  |  |  |  | distribution / enhancement in 6-hour-old myocardial infarction [7]: infarct accumulation |
| CNC(=O)CN(CCN(CCN(CC(=O)[O-])CC(=O)NC)CC(=O)[O-])CC(=O)[O-].[Gd+3] [GdDTPA-BMA, reference compound] | significant differential enhancement | delineated by both agents | significantly reduced compared to hearts with no contrast | not different from that of hearts with no contrast | 31.1 ± 1.2 ms | 34.7 ± 0.7 ms | 185 ± 49 | 200 ± 40 | 13.2 ± 1.5 ms | 17.1 ± 2.2 ms | 350 ± 34 | 184 ± 21 | 35 ± 7 | 42 ± 4 | 20 to 30 min | ≤ 10 min | commensurably greater content of gadolinium in that region than in normal myocardium | approximately 2.5 fold | distributed to the infarcted area of the heart | increased gradually | signal intensity ratio (doped/undoped), T1-weighted (Human blood samples; T1-weighted TR/TE 500/30 ms, 0.5 T): increased signal intensity effect; signal intensity ratio (doped/undoped), other sequences (Human blood samples; T2-weighted (1500/90) and proton density-weighted (1500/30)): barely noticed in the other sequences; discrimination between "viable" and "non-viable" samples (Human blood samples; all sequences): no significant discrimination; infarction signal / visualization ([3]; T1- and proton density-weighted, vs no contrast agent or Dy-DTPA-BMA only): enhanced infarction signal in the T1- and proton density-weighted sequences, resulting in improved infarction visualization; enhancement of infarcted region, single agent vs both agents ([4]; T1-weighted images): significantly less than that noted when both agents were present; concentration in infarcted vs non-ischemic myocardium [9]: more than threefold higher concentration; distribution / enhancement in 6-hour-old myocardial infarction [7]: infarct accumulation; duration of plateau in dialysate [8]: 60 min; concentration in dialysate after early peak [8]: diminished with time |
